Laboratory results reported in US8367724B2, “Ester compound and use thereof” (Sumitomo Chemical Company, Limited, priority 2007, dated 2013).

Experiments:
[1] = tested on: Adult houseflies; test: Knock-down of adult houseflies, oil solution sprayed in a chamber (Test Example 1); format: in vivo, housefly; conditions: 0.7 ml of 0.025% oil solution sprayed in 70 cm cubic chamber; 10 adult houseflies; counted two minutes after spraying; 2 repetitions
Method: Each 0.025 part of the present compounds (1) to (3) produced in the above Production Examples was dissolved in 10 parts of dichloromethane, and the solution was mixed with 89.975 parts of deodorized kerosene to prepare a 0.025% oil solution.
Adult houseflies (5 males and 5 females, total 10) were released in a cubic chamber having each side of 70 cm, and 0.7 ml of the 0.025% oil solution of the present compound prepared above was sprayed into the chamber through a small window on a side of the chamber using a spraying gun at a pressure of 8.8×10^4 Pa. Two minutes after spraying, the number of knocked-down houseflies was counted (2 repetitions).
In addition, the same as above test was performed by using, in place of the present compounds (1) to (3), 4-methyl-2,3,5,6-tetrafluorobenzyl (1R)-trans-3-(2-methyl-1-propenyl)-2,2-dimethylcyclopropanecarboxylate represented by the formula: […]

[2] = tested on: common mosquito (Culex pipens pallens) females; test: Mortality of common mosquito females, oil solution sprayed in a chamber (Test Example 2); format: in vivo; conditions: 0.7 ml of 0.00625% oil solution sprayed in 70 cm cubic chamber; ten females; recovered after ten minutes; dead counted after 24 hours; 2 repetition
Method: Each 0.00625 parts of the present compounds (1) to (3) produced in the above production Examples was dissolved in 10 parts of dichloromethane, and the solution was mixed with 89.99375 parts of deodorized kerosene to prepare a 0.00625% oil solution.
Ten common mosquito (Culex pipens pallens) females were released in a cubic chamber having each side of 70 cm, and 0.7 ml of the 0.00625% oil solution of the present compound prepared above was sprayed into the chamber through a small window on a side of the chamber using a spraying gun at a pressure of 8.8×10^4 Pa. After ten minutes, common mosquito females were recovered in a clean cup (bottom diameter 8.2 cm) with a cotton wool containing a 0.5% aqueous sugar, and allowed to stand until the next day. After 24 hours, the number of dead mosquitoes was counted, and a mortality was calculated (2 repetition).
In addition, the same as above test was performed using, in place of present compounds (1) to (3), 4-methoxymethyl-2,3,5,6-tetrafluorobenzyl (1R)-trans-3-(2-cyano-1-propenyl)-2,2-dimethylcyclopropanecarboxylate (ratio of isomers regarding double bond: Z/E=about 2/1; compound described in U.S. Pat. No. 6,908,945B2; hereinafter refereed to as Comparative Compound (4)) as a control.

## COc1c(F)c(F)c(COC(=O)[C@@H]2[C@@H](C=C(C)C#N)C2(C)C)c(F)c1F (racemic) [Present compound (2), 4-methoxy-2,3,5,6-tetrafluorobenzyl (1R) trans-3-(2-cyano-1-propenyl)-2,2-dimethylcyclopropanecarboxylate]
[1]
  Number of knock-down houseflies: 10
[2]
  Mortality (%): 100%

## COCc1c(F)c(F)c(COC(=O)[C@@H]2[C@@H](C=C(C)C#N)C2(C)C)c(F)c1F [Comparative compound (4), 4-methoxymethyl-2,3,5,6-tetrafluorobenzyl (1R)-trans-3-(2-cyano-1-propenyl)-2,2-dimethylcyclopropanecarboxylate, reference compound]
[2]
  Mortality (%): 16%

## CC(C)=C[C@@H]1[C@@H](C(=O)OCc2c(F)c(F)c(C)c(F)c2F)C1(C)C [Comparative compound (1), 4-methyl-2,3,5,6-tetrafluorobenzyl (1R)-trans-3-(2-methyl-1-propenyl)-2,2-dimethylcyclopropanecarboxylate, reference compound]
[1]
  Number of knock-down houseflies: 0

## CC(C#N)=C[C@@H]1[C@@H](C(=O)OCc2c(F)c(F)c(C)c(F)c2F)C1(C)C (racemic) [Present compound (1), 4-methyl-2,3,5,6-tetrafluorobenzyl (1R)-trans-3-(2-cyano-1-propenyl)-2,2-dimethylcyclopropanecarboxylate]
[1]
  Number of knock-down houseflies: 10
[2]
  Mortality (%): 95%

## COc1c(F)c(F)c(COC(=O)[C@@H]2[C@@H](C=C(C)C)C2(C)C)c(F)c1F [Comparative compound (2), 4-methoxy-2,3,5,6-tetrafluorobenzyl (1R)-trans-3-(2-methyl-1-propenyl)-2,2-dimethylcyclopropanecarboxylate, reference compound]
[1]
  Number of knock-down houseflies: 0

## C=CCc1c(F)c(F)c(COC(=O)[C@@H]2[C@@H](C=C(C)C#N)C2(C)C)c(F)c1F (racemic) [Present compound (3), 4-allyl-2,3,5,6-tetrafluorobenzyl (1R)-trans-3-(2-cyano-1-propenyl)-2,2-dimethylcyclopropanecarboxylate]
[1]
  Number of knock-down houseflies: 9
[2]
  Mortality (%): 70%

## C=CCc1c(F)c(F)c(COC(=O)[C@@H]2[C@@H](C=C(C)C)C2(C)C)c(F)c1F [Comparative compound (3), 4-allyl-2,3,5,6-tetrafluorobenzyl (1R)-trans-3-(2-methyl-1-propenyl)-2,2-dimethylcyclopropanecarboxylate, reference compound]
[1]
  Number of knock-down houseflies: 0
